Reference: patent US20060216749A1, “Chimeric gaba receptor” (priority 2003, published 2006)

Columns and labels:
[1] = target: hGABABR1a/R2 heterodimeric GABAB receptor (CHO membranes) (Homo sapiens, UniProt O75899+Q9UBS5); test: biochemical
Experimental: (§1) Butyrate-stimulated (5 mM final) cells were scraped, after a short rinse with PBS, in 50 mM TrisHCl pH7.4 and centrifuged at 23500 g for 10 min. at 4° C. The pellet was homogenised in 5 mM TrisHCI pH 7.4 by Ultra-Turrax (24000 rpm) followed by centrifugation at 30000 g for 20 min. at 4° C. The resulting pellet was resuspended in 50 mM TrisHCl pH 7.4 and rehomogenised. Protein concentration was determined using the Bradford method.
An agonist filter binding assay has been developed in 96-well GF/B filterplate.

[2] = target: hGABABR1a/GABABR2 receptor (CHO membranes) (Homo sapiens, UniProt O75899+Q9UBS5); test: GTPγ35S activation assay
Experimental: as §1
Filters were rinsed 6 times with cold 10 mM phosphate buffer pH 7.4, and dried overnight before addition of 30 μl Microscint O, and measurement in Topcount (Packard, 1 min./well).

[3] = target: GABAB receptor expressed by the hGABABR1a/GABABR2 CHO cell line (Homo sapiens, UniProt O75899+Q9UBS5); conditions: 10 μM in saturation assay, FIGS. 4a, b
GABAB receptor expressed by the hGABABR1a/GABABR2 CHO cell line, sequence (Q9UBS5 20-961): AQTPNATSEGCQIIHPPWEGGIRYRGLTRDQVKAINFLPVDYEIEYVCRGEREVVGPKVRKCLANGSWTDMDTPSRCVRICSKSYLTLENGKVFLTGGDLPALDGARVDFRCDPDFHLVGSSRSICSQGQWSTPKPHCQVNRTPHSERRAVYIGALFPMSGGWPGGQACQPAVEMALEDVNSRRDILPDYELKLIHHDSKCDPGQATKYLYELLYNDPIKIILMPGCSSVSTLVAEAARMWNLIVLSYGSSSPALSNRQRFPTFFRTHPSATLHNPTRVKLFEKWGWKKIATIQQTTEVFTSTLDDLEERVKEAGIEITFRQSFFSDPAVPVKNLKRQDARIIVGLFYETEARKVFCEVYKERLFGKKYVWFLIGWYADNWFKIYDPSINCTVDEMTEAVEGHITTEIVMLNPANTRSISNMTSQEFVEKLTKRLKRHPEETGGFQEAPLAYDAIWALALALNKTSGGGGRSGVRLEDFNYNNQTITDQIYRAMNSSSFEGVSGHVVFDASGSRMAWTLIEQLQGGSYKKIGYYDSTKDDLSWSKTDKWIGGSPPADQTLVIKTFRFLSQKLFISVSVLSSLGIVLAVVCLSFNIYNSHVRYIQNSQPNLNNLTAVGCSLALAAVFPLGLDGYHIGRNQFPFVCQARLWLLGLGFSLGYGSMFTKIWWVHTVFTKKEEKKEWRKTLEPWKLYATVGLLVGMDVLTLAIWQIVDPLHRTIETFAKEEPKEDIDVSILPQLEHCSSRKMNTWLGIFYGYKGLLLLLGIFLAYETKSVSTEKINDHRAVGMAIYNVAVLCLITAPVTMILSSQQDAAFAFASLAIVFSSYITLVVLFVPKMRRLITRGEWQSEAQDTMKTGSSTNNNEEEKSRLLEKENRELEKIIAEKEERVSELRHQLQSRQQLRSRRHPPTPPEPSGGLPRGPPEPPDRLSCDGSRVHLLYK
GABAB receptor expressed by the hGABABR1a/GABABR2 CHO cell line, sequence (O75899 42-941): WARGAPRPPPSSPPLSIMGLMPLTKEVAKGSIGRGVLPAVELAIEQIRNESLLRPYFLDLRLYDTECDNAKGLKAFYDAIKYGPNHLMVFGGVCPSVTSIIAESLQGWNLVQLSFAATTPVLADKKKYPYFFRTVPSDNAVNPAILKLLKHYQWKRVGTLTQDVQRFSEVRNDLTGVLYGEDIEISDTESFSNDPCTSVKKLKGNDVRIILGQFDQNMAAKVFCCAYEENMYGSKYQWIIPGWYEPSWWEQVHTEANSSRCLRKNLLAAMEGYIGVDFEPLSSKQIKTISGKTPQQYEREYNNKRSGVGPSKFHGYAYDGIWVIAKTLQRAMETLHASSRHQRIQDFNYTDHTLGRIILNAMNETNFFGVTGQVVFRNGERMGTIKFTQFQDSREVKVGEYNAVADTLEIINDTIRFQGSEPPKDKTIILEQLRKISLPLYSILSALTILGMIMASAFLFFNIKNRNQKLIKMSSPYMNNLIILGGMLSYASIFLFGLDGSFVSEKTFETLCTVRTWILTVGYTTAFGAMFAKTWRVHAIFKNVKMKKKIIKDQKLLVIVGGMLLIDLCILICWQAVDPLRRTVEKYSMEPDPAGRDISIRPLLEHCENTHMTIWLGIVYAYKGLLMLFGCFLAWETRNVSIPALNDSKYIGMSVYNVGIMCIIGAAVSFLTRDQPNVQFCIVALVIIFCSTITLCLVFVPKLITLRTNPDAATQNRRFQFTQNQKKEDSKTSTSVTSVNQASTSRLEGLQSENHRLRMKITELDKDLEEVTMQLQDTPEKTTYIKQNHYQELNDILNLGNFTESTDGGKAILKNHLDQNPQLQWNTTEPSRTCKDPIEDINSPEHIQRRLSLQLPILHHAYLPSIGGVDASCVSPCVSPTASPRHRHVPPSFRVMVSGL
Experimental: Agonist centrifugation Binding AssayIn an alternative binding assay the non-bound ligand was separated from the membranes by centrifugation instead of filtration. The assay was performed according to the earlier described filter binding assay, with the difference that the non-bound ligand was separated from the membranes by centrifugation in a microcentrifuge at 12500 rpm for 10 minutes. The supernatant was discarded, the pellet was rinsed with washing buffer and dissolved in 200 μl water.

[4] = target: T1, native GABAB receptor, Rat (Rattus norvegicus, UniProt Q9Z0U4); conditions: published results; cited from earlier work
T1 construct: host or cells: rat tissue preparations
T1 sequence (Q9Z0U4 20-960): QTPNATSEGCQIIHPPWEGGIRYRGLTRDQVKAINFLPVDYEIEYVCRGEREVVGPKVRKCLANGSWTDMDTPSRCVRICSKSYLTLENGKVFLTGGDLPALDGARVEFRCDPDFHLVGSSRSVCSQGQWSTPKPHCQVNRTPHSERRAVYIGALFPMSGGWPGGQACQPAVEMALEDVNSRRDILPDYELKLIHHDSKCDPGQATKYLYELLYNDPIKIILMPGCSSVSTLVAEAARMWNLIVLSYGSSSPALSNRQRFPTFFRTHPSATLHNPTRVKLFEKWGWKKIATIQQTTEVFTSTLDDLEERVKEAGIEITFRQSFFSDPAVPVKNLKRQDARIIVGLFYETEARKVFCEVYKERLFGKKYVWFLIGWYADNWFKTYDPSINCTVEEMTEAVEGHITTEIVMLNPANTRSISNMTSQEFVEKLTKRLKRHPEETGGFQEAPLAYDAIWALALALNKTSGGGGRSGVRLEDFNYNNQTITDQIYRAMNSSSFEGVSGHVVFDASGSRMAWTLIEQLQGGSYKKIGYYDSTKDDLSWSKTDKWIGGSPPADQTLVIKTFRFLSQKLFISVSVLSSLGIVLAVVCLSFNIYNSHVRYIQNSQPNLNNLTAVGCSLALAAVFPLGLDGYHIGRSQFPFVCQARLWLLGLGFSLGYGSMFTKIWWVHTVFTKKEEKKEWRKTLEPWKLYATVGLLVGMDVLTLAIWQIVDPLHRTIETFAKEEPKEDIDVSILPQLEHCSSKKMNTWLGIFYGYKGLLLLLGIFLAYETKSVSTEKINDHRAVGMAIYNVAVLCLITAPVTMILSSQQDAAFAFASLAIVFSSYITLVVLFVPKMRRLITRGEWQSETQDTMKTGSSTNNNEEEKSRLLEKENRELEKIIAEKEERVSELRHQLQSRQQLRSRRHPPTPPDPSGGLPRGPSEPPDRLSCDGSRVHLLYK
T1 sequence (O88871 41-940 partner): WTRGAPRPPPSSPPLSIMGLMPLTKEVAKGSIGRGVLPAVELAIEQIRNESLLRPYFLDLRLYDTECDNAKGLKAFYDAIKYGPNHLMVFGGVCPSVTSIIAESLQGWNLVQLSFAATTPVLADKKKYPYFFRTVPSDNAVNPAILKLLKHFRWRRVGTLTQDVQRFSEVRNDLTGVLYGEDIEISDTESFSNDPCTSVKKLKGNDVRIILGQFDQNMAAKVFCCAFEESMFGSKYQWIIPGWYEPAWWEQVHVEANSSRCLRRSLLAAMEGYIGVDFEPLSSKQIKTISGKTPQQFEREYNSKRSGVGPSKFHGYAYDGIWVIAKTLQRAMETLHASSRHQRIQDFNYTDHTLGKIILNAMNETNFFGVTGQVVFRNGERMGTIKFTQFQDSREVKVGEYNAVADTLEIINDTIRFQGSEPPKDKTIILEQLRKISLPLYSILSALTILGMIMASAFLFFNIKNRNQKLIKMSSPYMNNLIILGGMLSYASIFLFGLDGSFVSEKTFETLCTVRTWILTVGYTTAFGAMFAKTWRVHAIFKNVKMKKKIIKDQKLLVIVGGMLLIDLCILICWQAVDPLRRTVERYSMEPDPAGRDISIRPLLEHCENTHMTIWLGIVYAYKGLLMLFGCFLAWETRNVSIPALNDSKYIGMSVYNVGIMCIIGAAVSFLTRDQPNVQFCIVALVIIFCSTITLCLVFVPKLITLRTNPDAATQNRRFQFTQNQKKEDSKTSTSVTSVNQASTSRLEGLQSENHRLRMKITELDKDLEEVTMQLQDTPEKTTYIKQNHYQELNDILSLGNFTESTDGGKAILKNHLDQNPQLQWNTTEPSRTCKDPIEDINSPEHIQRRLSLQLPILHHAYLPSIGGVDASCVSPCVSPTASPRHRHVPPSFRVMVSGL

[5] = target: native GABAB receptor, Pig (Sus scrofa, UniProt A0A480I1B8); conditions: Facklam & Bowery, 1993; cited from earlier work
native GABAB receptor, Pig, sequence (A0A480I1B8 1-960): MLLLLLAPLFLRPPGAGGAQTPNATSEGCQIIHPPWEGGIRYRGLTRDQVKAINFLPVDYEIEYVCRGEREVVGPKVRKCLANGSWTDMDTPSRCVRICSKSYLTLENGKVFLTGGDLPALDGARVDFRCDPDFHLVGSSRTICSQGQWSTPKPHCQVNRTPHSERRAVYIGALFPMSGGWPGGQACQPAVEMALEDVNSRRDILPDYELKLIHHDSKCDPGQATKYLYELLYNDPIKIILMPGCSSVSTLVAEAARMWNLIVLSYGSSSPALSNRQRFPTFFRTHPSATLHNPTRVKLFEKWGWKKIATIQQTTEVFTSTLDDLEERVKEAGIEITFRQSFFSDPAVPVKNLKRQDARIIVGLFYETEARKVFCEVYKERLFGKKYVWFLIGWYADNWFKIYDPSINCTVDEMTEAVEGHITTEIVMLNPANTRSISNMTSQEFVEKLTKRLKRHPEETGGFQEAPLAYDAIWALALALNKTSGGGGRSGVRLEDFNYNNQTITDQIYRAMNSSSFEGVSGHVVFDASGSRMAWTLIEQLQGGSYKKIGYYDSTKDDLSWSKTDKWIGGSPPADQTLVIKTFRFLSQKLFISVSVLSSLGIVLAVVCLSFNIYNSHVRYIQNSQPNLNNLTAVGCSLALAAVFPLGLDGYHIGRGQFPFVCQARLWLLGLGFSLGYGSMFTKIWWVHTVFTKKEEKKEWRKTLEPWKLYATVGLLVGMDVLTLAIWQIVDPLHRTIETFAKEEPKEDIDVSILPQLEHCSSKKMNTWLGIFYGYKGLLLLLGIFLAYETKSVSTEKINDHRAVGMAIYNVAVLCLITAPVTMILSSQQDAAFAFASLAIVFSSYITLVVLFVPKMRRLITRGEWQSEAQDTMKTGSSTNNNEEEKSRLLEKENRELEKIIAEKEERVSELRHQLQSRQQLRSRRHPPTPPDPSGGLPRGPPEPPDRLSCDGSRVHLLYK

hGABABR1a/GABABR2 receptor (CHO membranes), sequence (Q9UBS5 20-961): as the sequence (Q9UBS5 20-961) above
hGABABR1a/GABABR2 receptor (CHO membranes), sequence (O75899 42-941): as the sequence (O75899 42-941) above
hGABABR1a/R2 heterodimeric GABAB receptor (CHO membranes), sequence (Q9UBS5 20-961): as the sequence (Q9UBS5 20-961) above
hGABABR1a/R2 heterodimeric GABAB receptor (CHO membranes), sequence (O75899 42-941): as the sequence (O75899 42-941) above

Row | SMILES | IC50 [1] [nM] | SIGNAL TRANSDUCTION GTPγS binding % Effect at 10 μM [2] [%] | other results
1 | CC1(C)CC2=Nc3c(N)ncnc3SC2=C(NCCCC(=O)O)C1 | 151 | 40.95 | –
2 | CC(C)(CO)Cc1cc(C(C)(C)C)c(O)c(C(C)(C)C)c1 [CGP7930, reference compound] | – | – | effect on GABA-stimulated GTPγ35S binding ([2]; positive modulator, FIG. 1): potentiated
3 | C[C@H](NC[C@H](O)CP(=O)(O)CC1CCCCC1)c1ccc(Cl)c(Cl)c1 [CGP54626, reference compound] | – | – | effect on 3H-GABA binding to both the high and the low affinity site [3]: blocked
4 | C[C@H](NC[C@H](O)CP(=O)(O)CC1CCCCC1)c1ccc(Cl)c(Cl)c1 [^3H-CGP54626] | – | – | Kd [4]: 1.5 nM; Kd [5]: 1.35 nM
5 | NCCCC(=O)O [^3H-GABA] | – | – | Kd [5]: 26 nM
6 | CN(C)c1ncnc2c1N=C1CC(C)(C)CC(NCCCC(=O)O)=C1S2 [compound 1] | – | – | effect on 3H-GABA binding to both the high and the low affinity site [3]: blocked

More lines, main results first:

Row | IC50 [1] [nM] | SIGNAL TRANSDUCTION GTPγS binding % Effect at 10 μM [2] [%] | SMILES | other results
7 | 372 | 24.44 | CC1(C)CC2=Nc3ccccc3SC2=C(NCCCC(=O)O)C1 | –
8 | 135 | 61.93 | CC1(C)CC2=Nc3c(Cl)ncnc3SC2=C(NCCCC(=O)O)C1 | –
9 | 64.9 | 45.7275 | CN(C)c1ncnc2c1N=C1CC(C)(C)CC(NCCCC(=O)O)=C1S2 [drawing 15] | –
